Results on 16 compounds are retold here after PubChem BioAssay AID248 (DTP/NCI, 2004).

Each structure is given as a SMILES string. Where “and” joins values, the source holds several entries; their conditions need not be identical. Equal values may be shown once. Toxic doses and inconclusive results are not listed.

The experiment has as its system L1210 leukemia ip in BDF1 mice, survival T/C. Briefly: NCI In Vivo Anticancer Drug Screen. Data for tumor model L1210 Leukemia (intraperitoneal) in B6D2F1 (BDF1) mice. The settings on record: endpoint: mean survival time, higher = longer survival. Summed up:
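Transplanted-tumor mice were given test agent; controls received vehicle only. Survival readings from the two groups were divided (treated over control).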

Setting [1] is: dose: 50.0 mg/kg/injection, schedule: Q01DX009 (ip), vehicle: saline.
Setting [2] is: dose: 100.0 mg/kg/injection, schedule: Q01DX009 (ip), vehicle: saline.
Where [3] appears, read: dose: 200.0 mg/kg/injection, schedule: Q01DX009 (ip), vehicle: saline.
[4] abbreviates: dose: 100.0 mg/kg/injection, schedule: Q01DX001 (ip), vehicle: carboxymethylcellulose (CMC).
Setting [5] is: dose: 200.0 mg/kg/injection, schedule: Q01DX001 (ip), vehicle: carboxymethylcellulose (CMC).
Setting [6] is: dose: 400.0 mg/kg/injection, schedule: Q01DX001 (ip), vehicle: carboxymethylcellulose (CMC).
The mark [7] stands for this setting: dose: 100.0 mg/kg/injection, schedule: Q01DX009 (ip), vehicle: Klucel (hydroxypropylcellulose) (HPC).
The mark [8] stands for this setting: dose: 200.0 mg/kg/injection, schedule: Q01DX009 (ip), vehicle: Klucel (hydroxypropylcellulose) (HPC).
The mark [9] stands for this setting: dose: 400.0 mg/kg/injection, schedule: Q01DX009 (ip), vehicle: Klucel (hydroxypropylcellulose) (HPC).
Where [10] appears, read: dose: 100.0 mg/kg/injection, schedule: Q04DX003 (ip), vehicle: saline with Tween-80.
The mark [11] stands for this setting: dose: 200.0 mg/kg/injection, schedule: Q04DX003 (ip), vehicle: saline with Tween-80.

Turning to `O=C=NCCCl`, the T/C was 101 % of control (dose: 0.5 mg/kg/injection, schedule: Q01DX001 (ip), vehicle: propolene glycol); 90 % of control (dose: 1.0 mg/kg/injection, schedule: Q01DX001 (ip), vehicle: propolene glycol); 89 % of control (dose: 2.0 mg/kg/injection, schedule: Q01DX001 (ip), vehicle: propolene glycol); 89 % of control (dose: 3.0 mg/kg/injection, schedule: Q01DX001 (ip), vehicle: propolene glycol); 92 % of control (dose: 4.0 mg/kg/injection, schedule: Q01DX001 (ip), vehicle: propolene glycol); 89 % of control (dose: 6.0 mg/kg/injection, schedule: Q01DX001 (ip), vehicle: propolene glycol). The T/C is 98 % of control (dose: 6.5 mg/kg/injection, schedule: Q01DX001 (ip), vehicle: olive oil, sesame oil, peanut oil); 92 % of control (dose: 8.0 mg/kg/injection, schedule: Q01DX001 (ip), vehicle: propolene glycol); 95 % of control (dose: 12.5 mg/kg/injection, schedule: Q01DX001 (ip), vehicle: propolene glycol); 95 % of control (dose: 12.5 mg/kg/injection, schedule: Q01DX009 (sc), vehicle: olive oil, sesame oil, peanut oil); 104 % of control (dose: 13.0 mg/kg/injection, schedule: Q01DX001 (ip), vehicle: olive oil, sesame oil, peanut oil); 91 % of control (dose: 25.0 mg/kg/injection, schedule: Q01DX001 (ip), vehicle: propolene glycol). In addition, the T/C reads like this: (dose: 25.0 mg/kg/injection, schedule: Q01DX009 (sc), vehicle: olive oil, sesame oil, peanut oil) 103 % of control; (dose: 26.0 mg/kg/injection, schedule: Q01DX001 (ip), vehicle: olive oil, sesame oil, peanut oil) 96 % of control; (dose: 40.0 mg/kg/injection, schedule: Q01DX001 (ip), vehicle: olive oil, sesame oil, peanut oil) 102 % of control; (dose: 50.0 mg/kg/injection, schedule: Q01DX009 (sc), vehicle: olive oil, sesame oil, peanut oil) 97 % of control; (dose: 60.0 mg/kg/injection, schedule: Q01DX001 (ip), vehicle: olive oil, sesame oil, peanut oil) 98 % of control; (dose: 93.0 mg/kg/injection, schedule: Q01DX001 (ip), vehicle: olive oil, sesame oil, peanut oil) 100 % of control. In addition, the T/C runs as follows: (dose: 100.0 mg/kg/injection, schedule: Q04DX003 (sc), vehicle: olive oil, sesame oil, peanut oil) 97 % of control; (dose: 125.0 mg/kg/injection, schedule: Q01DX001 (ip), vehicle: olive oil, sesame oil, peanut oil) 106 % of control; (dose: 187.0 mg/kg/injection, schedule: Q01DX001 (ip), vehicle: olive oil, sesame oil, peanut oil) 98 % of control; (dose: 250.0 mg/kg/injection, schedule: Q01DX001 (ip), vehicle: olive oil, sesame oil, peanut oil) 98 % of control; (dose: 250.0 mg/kg/injection, schedule: Q01DX001 (ip), vehicle: propolene glycol) 113 % of control; (dose: 375.0 mg/kg/injection, schedule: Q01DX001 (ip), vehicle: olive oil, sesame oil, peanut oil) 104 % of control. The T/C (dose: 500.0 mg/kg/injection, schedule: Q01DX001 (ip), vehicle: olive oil, sesame oil, peanut oil) is 93 % of control.

`CCOC(=O)C1C(=O)NCC1c1ccccc1` (stereo not drawn): the T/C is 94 % of control and 97 % of control under setting [1]; 104 % of control under setting [2]; 108 % of control and 91 % of control under setting [3].

Consider `O=C(Nc1ccc(S(=O)(=O)NC2CCCCC2)cc1)OC1CCCC1`, for which the T/C runs as follows: under setting [4], 95 % of control; under setting [5], 94 % of control; under setting [6], 97 % of control.

With `COc1ccc(OC)c(/C=C/c2ccc(NC(=O)C(Cl)(Cl)Cl)cc2)c1`, the T/C reads like this: under setting [7], 98 % of control; under setting [8], 93 % of control; under setting [9], 102 % of control.

Consider `O=C1NC(=O)C2C3CCC(C3)C12` (stereo not drawn), for which the T/C (dose: 6.25 mg/kg/injection, schedule: Q04DX003 (ip), vehicle: saline) is 105 % of control; the T/C (dose: 12.5 mg/kg/injection, schedule: Q04DX003 (ip), vehicle: saline) was 102 % of control; the T/C (dose: 25.0 mg/kg/injection, schedule: Q04DX003 (ip), vehicle: saline) is 102 % of control.

As for `CS(=O)(=O)OCCN(CCOS(C)(=O)=O)c1ccc(C=Nc2ccc(-c3csc(-c4ccc(Cl)cc4)n3)cc2)cc1`, the T/C is, setting by setting: (dose: 66.0 mg/kg/injection, schedule: Q04DX003 (ip), vehicle: Klucel (hydroxypropylcellulose) (HPC)) 122 % of control; (dose: 150.0 mg/kg/injection, schedule: Q04DX003 (ip), vehicle: Klucel (hydroxypropylcellulose) (HPC)) 153 % of control.

Consider `NC(=O)c1ccccc1NC(=O)Nc1c(Cl)cccc1Cl`, for which the T/C is, setting by setting: under setting [7], 94 % of control; under setting [8], 106 % of control; under setting [9], 120 % of control.

Regarding `CC(=O)Oc1c(C(C)(C)C)cc([N+](=O)[O-])c(C)c1[N+](=O)[O-]`, the T/C by setting is: (dose: 25.0 mg/kg/injection, schedule: Q04DX002 (ip), vehicle: Klucel (hydroxypropylcellulose) (HPC)) 95 % of control; (dose: 50.0 mg/kg/injection, schedule: Q04DX002 (ip), vehicle: Klucel (hydroxypropylcellulose) (HPC)) 97 % of control.

With `COc1ccc(/C=C2\N=C(c3ccc(Cl)cc3)OC2=O)cc1Br`, the T/C was 101 % of control (dose: 100.0 mg/kg/injection, schedule: Q04DX002 (ip), vehicle: saline); 93 % of control (dose: 200.0 mg/kg/injection, schedule: Q04DX002 (ip), vehicle: saline); 108 % of control (dose: 400.0 mg/kg/injection, schedule: Q04DX002 (ip), vehicle: saline).

Take `NCC(=O)O`: the T/C is 100 % of control under setting [4], 92 % of control under setting [5] and 100 % of control under setting [6].

Take `CCCCC(=O)N/N=C/c1cc2c(cc1[N+](=O)[O-])OCO2` (tested in a mixture with another compound): the T/C was 91 % of control under setting [4], 91 % of control under setting [5] and 91 % of control under setting [6].

With `Oc1nc(/N=C2/N=c3ccc(Cl)cc3=N2)[nH]c1O`, the T/C is, setting by setting: (dose: 100.0 mg/kg/injection, schedule: Q04DX003 (ip), vehicle: Klucel (hydroxypropylcellulose) (HPC)) 98 % of control; (dose: 200.0 mg/kg/injection, schedule: Q04DX003 (ip), vehicle: Klucel (hydroxypropylcellulose) (HPC)) 106 % of control; (dose: 400.0 mg/kg/injection, schedule: Q04DX003 (ip), vehicle: Klucel (hydroxypropylcellulose) (HPC)) 98 % of control.

As for `c1ccc(C2c3cccc4c3C3c5c2cccc5C(c2ccccc2)c2cccc(c23)C4c2ccccc2)cc1` (stereo not drawn), the T/C is 108 % of control under setting [10]; 95 % of control under setting [11]; 100 % of control (dose: 400.0 mg/kg/injection, schedule: Q04DX003 (ip), vehicle: saline with Tween-80).

With `CC(C)(O)C(I)C[n+]1ccccc1` (stereo not drawn), the T/C reads like this: under setting [1], 107 % of control; (dose: 88.0 mg/kg/injection, schedule: Q04DX003 (ip), vehicle: saline with Tween-80) 124 % of control; under setting [2], 110 % of control and 113 % of control; under setting [10], 106 % of control; (dose: 100.0 mg/kg/injection, schedule: Q04DX003 (ip), vehicle: saline) 102 % of control and 111 % of control; (dose: 133.0 mg/kg/injection, schedule: Q04DX003 (ip), vehicle: saline with Tween-80) 119 % of control. For the same compound, the T/C runs as follows: (dose: 175.0 mg/kg/injection, schedule: Q04DX003 (ip), vehicle: saline) 106 % of control; under setting [3], 117 % of control and 121 % of control; under setting [11], 117 % of control; (dose: 200.0 mg/kg/injection, schedule: Q04DX003 (ip), vehicle: saline) 108 % of control; (dose: 265.0 mg/kg/injection, schedule: Q04DX003 (ip), vehicle: saline) 114 % of control; (dose: 400.0 mg/kg/injection, schedule: Q04DX003 (ip), vehicle: saline) 121 % of control. Also, the T/C (dose: 600.0 mg/kg/injection, schedule: Q04DX003 (ip), vehicle: saline) was 90 % of control.

Consider `O=C(OCCOc1ccccc1)c1ccc([N+](=O)[O-])cc1`, for which the T/C (dose: 100.0 mg/kg/injection, schedule: Q01DX001 (ip), vehicle: saline) was 100 % of control; the T/C (dose: 200.0 mg/kg/injection, schedule: Q01DX001 (ip), vehicle: saline) is 98 % of control; the T/C (dose: 400.0 mg/kg/injection, schedule: Q01DX001 (ip), vehicle: saline) was 116 % of control.

With `COc1ccc(C)cc1NC(=O)C(Br)C(Br)C(=O)O` (stereo not drawn), the T/C was 100 % of control under setting [7], 97 % of control under setting [8] and 96 % of control under setting [9].
